Molecules are shown by their SMILES. Structures can show the parent of a compound that is named as a salt.

We go through 2 compounds from US20070093511A1, “Anhydrous Crystal Form of Valaciclovir Hydrochloride” (priority 2001, published 2007).

Data set [1] is described as follows: Water content by Karl Fischer titration. Type of data set: physicochemical. Conditions: Example 11 analysis. As for the experimental part:
The water of hydration content is measured by the Karl Fischer method which is well known in the art and is described in the 1990 US Pharmacopoeia at pages 1619-1621, and the European Pharmacopoeia, second edition (1992) part 2, sixteenth fascicule at v. 3.5-6.1. Water content (by Karl Fisher titration): 0.61% w/w

Data set [2] in a line: Stability and hygroscopicity of the crystal form (stated, no method). The class given is physicochemical. The following applies: stated as advantage.
The nature of data set [3]: Thermogravimetric analysis (TGA). Type of data set: physicochemical. Conditions: from 182-310° C., scan rate 10° C. per minute, associated with melting/decomposition. As to the method:
Thermogravimetric analysis was carried out on a Perkin-Elmer Pyris-1 TGA system. Scan rate of 10° C. per minute. Sample size 3.757 mg. The TGA trace is provided at FIG. 6. Weight loss from 182-310° C.=42.97% w/w associated with melting/decomposition

For data set [4] the following is noted: compared with acyclovir; cited from earlier work.

As to `CC(C)[C@H](N)C(=O)OCCOCn1cnc2c(=O)[nH]c(N)nc21` [Form 2 Valaciclovir Hydrochloride, valaciclovir hydrochloride], in data set [1], the “Water content (by Karl Fisher titration)” value stood at 0.61 % w/w. Also, in data set [2], the Hygroscopicity entry is given as “essentially non-hygroscopic” and the “Stability of crystal form” value is “stable”. In addition, in data set [3], the Weight loss stood at 42.97 % w/w.

Take `CC(C)[C@H](N)C(=O)OCCOCn1cnc2c(=O)[nH]c(N)nc21` [valaciclovir]: the Bioavailability entry in data set [4] was “much improved bioavailability”.
